In patent US3969521A, “Pharmaceutical compositions containing tetrahydroalstonine and method for treating circulation disorders” (Science Union et Cie, Societe Francaise de Recherche Medical, priority 1974, dated 1976):
“Also recorded” adds a separate entry of the source.

Tests used:
[1] = system: recovery of learned memories; experiment: Recovery of learned memories after electroshock (aquatic maze crossing); format: in vivo, rat; conditions: for effect on the recovery of learned memory: rat, in vivo
From the text: Effects of tetrahydroalstonine on the recovery of learned memories on rats.
Tetrahydroalstonine has been tested on lots of rats in order to determine how fast it allows the recovery of learned memories after supramaximal electroshock in comparision with Vincamine and Papaverine. These last compounds are known to be active on the circulation namely as vasodilating agents.
In this test, as described by C. Giurgea (J. Pharmacol. (Paris) 3 17 (1972)), the rats are submitted to a submaximal electroshock which causes a spatio-temporal desorientation. This syndrom is evidenced by the difficulties the tested animals encountered for crossing over a maze filled with cold water without any error, after they have been submitted to the electroshock. The rats have been previously trained to swimm through this maze and the training has been renewed four times for 2 days.
The electric shock was delivered by means of a Neurovar apparatus (ALVAR Electronics) the third day. 20 Minutes after the electro shock, each lot of rats is tested and the time for crossing over the maze is determined. Immediately after, the rats received the compound to be tested by intra oesophageal tubing. Each lot is then experienced four times, 1, 2, 3, and 4 hours after the electroshock.
The score of performances of each individual is recorded and every error during the crossing over noticed.
The compounds to be tested (papaverine, vincamine and tetrahydroalstonine) are given to the animals, suspended in an aqueous solution of carboxymethylcellulose and sorbitan monooleate.
Papaverine and vincamine were administered at dosis ranging from 1 to 20 mg/kg. Tetrahydroalstonine was administered at a dosis of 0.6 mg/kg, 6 mg/kg and 60 mg/kg.
A lot of rats received only the aqueous solvent under the same volume (0.5 ml/100 g animal) as controls.
Therein are reported for each lot of rats the number of errors and the average time for crossing over the maze during the 5 tests performed after the animals have been subjected to the electroshock.
The treatment has been given 20 mn after the electroshock, immediately
after the first crossing over

[2] = system: central nervous system; experiment: Effects on the central nervous system; format: in vivo
[3] = system: analgetic effect of Morphine; experiment: Analgetic effect of Morphine; conditions: in vivo
[4] = 10 mg/kg P.O., 20 minutes (before treatment)
[5] = 10 mg/kg P.O., 20 minutes after electroshock (before treatment)
[6] = 20 mg/kg P.O., 20 minutes (before treatment)
[7] = 20 mg/kg P.O., 20 minutes after electroshock (before treatment)

| Compound | a = variation of average number of errors as regard as the controls [1, 4] | E = average number of errors [1, 5] | T = average time for crossing over [1, 5] | E = average number of errors ([1]; 10 mg/kg P.O., 60 minutes) | T = average time for crossing over ([1]; 10 mg/kg P.O., 60 minutes) | a = variation of average number of errors as regard as the controls ([1]; 10 mg/kg P.O., 60 minutes) | E = average number of errors ([1]; 10 mg/kg P.O., 120 minutes) | T = average time for crossing over ([1]; 10 mg/kg P.O., 120 minutes) | a = variation of average number of errors as regard as the controls ([1]; 10 mg/kg P.O., 120 minutes) | E = average number of errors ([1]; 10 mg/kg P.O., 180 minutes) | T = average time for crossing over ([1]; 10 mg/kg P.O., 180 minutes) | a = variation of average number of errors as regard as the controls ([1]; 10 mg/kg P.O., 180 minutes) | E = average number of errors ([1]; 10 mg/kg P.O., 240 minutes) | T = average time for crossing over ([1]; 10 mg/kg P.O., 240 minutes) | a = variation of average number of errors as regard as the controls ([1]; 10 mg/kg P.O., 240 minutes) | effect on the recovery of learned memory (onset) ([1]; 20 mg/kg) | a = variation of average number of errors as regard as the controls [1, 6] | E = average number of errors [1, 7] | T = average time for crossing over [1, 7] | E = average number of errors ([1]; 20 mg/kg P.O., 60 minutes) | further results |
| --- | --- | --- | --- | --- | --- | --- | --- | --- | --- | --- | --- | --- | --- | --- | --- | --- | --- | --- | --- | --- | --- |
| COc1ccc(Cc2nccc3cc(OC)c(OC)cc23)cc1OC [Papaverine] | + | 14,3 | 154,2 seconds | 7,3 | 75,5 seconds | - | 4,8 | 54,2 seconds | - | 4,7 | 49,0 seconds | - | 2,4 | 25,4 seconds | - | delayed | + | 14,0 | 150,7 seconds | 10,4 | time after which improvement in performance appeared statistically significant ([1]; 10 mg/kg): 240 mn; b = statistical value (student's test), number of errors ([1]; 10 mg/kg P.O., 240 minutes): 0,0005; time after which improvement in performance appeared statistically significant ([1]; 20 mg/kg): 180 mn; T = average time for crossing over ([1]; 20 mg/kg P.O., 60 minutes): 89,8 seconds; a = variation of average number of errors as regard as the controls ([1]; 20 mg/kg P.O., 60 minutes): +; E = average number of errors ([1]; 20 mg/kg P.O., 120 minutes): 5,6; T = average time for crossing over ([1]; 20 mg/kg P.O., 120 minutes): 53,4 seconds; a = variation of average number of errors as regard as the controls ([1]; 20 mg/kg P.O., 120 minutes): -; E = average number of errors ([1]; 20 mg/kg P.O., 180 minutes): 2,9; T = average time for crossing over ([1]; 20 mg/kg P.O., 180 minutes): 29,7 seconds; a = variation of average number of errors as regard as the controls ([1]; 20 mg/kg P.O., 180 minutes): -; b = statistical value (student's test), number of errors ([1]; 20 mg/kg P.O., 180 minutes): 0,005; E = average number of errors ([1]; 20 mg/kg P.O., 240 minutes): 3,0; T = average time for crossing over ([1]; 20 mg/kg P.O., 240 minutes): 32,8 seconds; a = variation of average number of errors as regard as the controls ([1]; 20 mg/kg P.O., 240 minutes): -; b = statistical value (student's test), number of errors ([1]; 20 mg/kg P.O., 240 minutes): 0,01; effect on the recovery of learned memory [1]: improving effect |
| COC(=O)C1=CO[C@@H](C)[C@H]2CN3CCc4c([nH]c5ccccc45)[C@@H]3C[C@H]12 [Raubasine, reference compound] |  |  |  |  |  |  |  |  |  |  |  |  |  |  |  |  |  |  |  |  | effect on the central nervous system ([2]; 50 to 100 mg/kg perorally): merely a sedative; effect on the central nervous system ([2]; dosage not stated): merely endowed with sedative properties; effect on the analgetic effect of Morphine [3]: does not exert such effect; also recorded: does not increase the analgetic effects of morphine |
| CC[C@]12CCCN3CCc4c(n(c5ccccc45)[C@@](O)(C(=O)OC)C1)[C@@H]32 [Vincamine] | - | 10,8 | 135,6 seconds | 7,2 | 82,7 seconds | - | 4,6 | 44,1 seconds | - | 5,6 | 52,8 seconds | + | 4,3 | 38,6 seconds | - | delayed | + | 14,3 | 124,5 seconds | 7,1 | number of mistakes ([1]; 10 mg/kg): did not show any decrease in the number of mistakes; performances ([1]; 10 mg/kg, after 2 hours): slight improvement; start of the improving effect after the administration ([1]; 20 mg/kg): 40 min; start of the improving effect after the electroshock ([1]; 20 mg/kg): 60 mn; T = average time for crossing over ([1]; 20 mg/kg P.O., 60 minutes): 58,4 seconds; a = variation of average number of errors as regard as the controls ([1]; 20 mg/kg P.O., 60 minutes): -; E = average number of errors ([1]; 20 mg/kg P.O., 120 minutes): 5,2; T = average time for crossing over ([1]; 20 mg/kg P.O., 120 minutes): 38,2 seconds; a = variation of average number of errors as regard as the controls ([1]; 20 mg/kg P.O., 120 minutes): -; E = average number of errors ([1]; 20 mg/kg P.O., 180 minutes): 2,5; T = average time for crossing over ([1]; 20 mg/kg P.O., 180 minutes): 22,1 seconds; a = variation of average number of errors as regard as the controls ([1]; 20 mg/kg P.O., 180 minutes): -; b = statistical value (student's test), number of errors ([1]; 20 mg/kg P.O., 180 minutes): 0,0005; E = average number of errors ([1]; 20 mg/kg P.O., 240 minutes): 3,2; T = average time for crossing over ([1]; 20 mg/kg P.O., 240 minutes): 24,2 seconds; a = variation of average number of errors as regard as the controls ([1]; 20 mg/kg P.O., 240 minutes): -; b = statistical value (student's test), number of errors ([1]; 20 mg/kg P.O., 240 minutes): 0,025; number of mistakes ([1]; 20 mg/kg, 3 and 4 hours after the electroshock): significantly decreased; effect on the recovery of learned memory [1]: improving effect |
